The test has as its target T1, P2Y14 receptor (Rattus norvegicus, UniProt O35881).
T1 sequence (O35881 1-305): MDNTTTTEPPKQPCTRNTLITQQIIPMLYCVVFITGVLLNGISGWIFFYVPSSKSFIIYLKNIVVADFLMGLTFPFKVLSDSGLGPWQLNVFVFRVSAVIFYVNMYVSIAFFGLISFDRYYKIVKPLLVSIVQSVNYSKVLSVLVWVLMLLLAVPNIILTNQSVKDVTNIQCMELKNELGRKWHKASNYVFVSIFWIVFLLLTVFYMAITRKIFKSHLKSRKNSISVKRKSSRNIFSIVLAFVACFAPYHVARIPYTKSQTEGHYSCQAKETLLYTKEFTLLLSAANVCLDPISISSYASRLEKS
As to the kind of experiment: agonist-stimulated […]GTPγS binding to RBL-2H3 membranes. In kind it is biochemical. Background: Binding of GTPγS marks nucleotide exchange on a G protein.

As usually defined, the EC50 is the concentration at which the effect is half-maximal.

`O=c1ccn([C@@H]2O[C@H](COP(=O)(O)OP(=O)(O)O[C@H]3O[C@H](CO)[C@@H](O)[C@H](O)[C@H]3O)[C@@H](O)[C@H]2O)c(=S)[nH]1` [MRS2690, diphosphoric acid 1-α-D-glucopyranosyl ester 2-(2-thiouridin-5’’-yl) ester]: a half-maximal response (EC50) required 8.1 ± 1.6 nM.

(Values after PMC2812605 (Biochemical pharmacology, 2009).)
